≈ marks a conversion by molar mass, not a printed value.
Assays:
Test in all cases: Bacterial growth minimal inhibitory concentration (broth microdilution, CLSI M7-A7)
Type in all cases: cell-based
[1] = system: Moraxella catarrhalis A894; conditions: Moraxella catarrhalis, A894, cation-adjusted Mueller-Hinton Broth, quinolone-sensitive strain
Outline: (§1)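 Compounds are serially diluted in cation-adjusted Mueller-Hinton broth, inoculated and scored for MIC (mg/L) per the CLSI M7-A7 microdilution standard. A798 and T6474 carry multiple resistances including to quinolones.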

[2] = system: Acinetobacter baumannii T6474; conditions: Acinetobacter baumannii, T6474, cation-adjusted Mueller-Hinton Broth, multiply-resistant strain (in particular quinolone-resistant)
Outline: as §1

[3] = system: Staphylococcus aureus A798; conditions: Staphylococcus aureus, A798, cation-adjusted Mueller-Hinton Broth, multiply-resistant strain (in particular quinolone-resistant), read-out: MIC for S. aureus A798
Outline: as §1

[4] = system: Staphylococcus aureus ATCC29213; conditions: Staphylococcus aureus, ATCC29213, cation-adjusted Mueller-Hinton Broth, methicillin-sensitive and quinolone-sensitive strain, read-out: MIC for S. aureus ATCC29213
Outline: as §1

[5] = system: Enterococcus faecium A949; conditions: Enterococcus faecium, A949, cation-adjusted Mueller-Hinton Broth, multiply-resistant strain (in particular quinolone-resistant), read-out: MIC for E. faecium A949
Outline: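 Broth microdilution after CLSI M7-A7 in cation-adjusted Mueller-Hinton medium gave MIC values in mg/L.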

Compound | MIC [1] [µg/mL] | MIC [2] [µg/mL] | MIC [3] [µg/mL] | MIC [4] [µg/mL] | MIC [5] [µg/mL]
COc1ccc(C#N)cc1-c1cccc(CNCC[C@H]2CN(c3ccc4c(n3)NC(=O)CO4)C(=O)O2)c1 [Example 76, 6-methoxy-3′-({2-[(S)-2-oxo-3-(3-oxo-3,4-dihydro-2H-pyrido[3,2-b][1,4]oxazin-6-yl)-oxazolidin-5-yl]-ethylamino}-methyl)-biphenyl-3-carbonitrile] | ≤ 0.063 | 2 (≈ 4 µM) | 1 (≈ 2 µM) | 0.5 (≈ 1 µM) | 8 (≈ 16 µM)
COC(=O)c1cccc(-c2cccc(CNCC[C@H]3CN(c4ccc5c(n4)NC(=O)CO5)C(=O)O3)c2)c1 [Example 77, 3′-({2-[(S)-2-oxo-3-(3-oxo-3,4-dihydro-2H-pyrido[3,2-b][1,4]oxazin-6-yl)-oxazolidin-5-yl]-ethylamino}-methyl)-biphenyl-3-carboxylic acid methyl ester] | ≤ 0.063 | 2 (≈ 3.98 µM) | 0.25 (≈ 0.497 µM) | 0.5 (≈ 0.995 µM) | 4 (≈ 7.96 µM)
CNC(=O)COc1cccc(-c2cccc(CNCC[C@H]3CN(c4ccc5c(n4)NC(=O)CO5)C(=O)O3)c2)c1 [Example 78, N-methyl-2-[3′-({2-[(S)-2-oxo-3-(3-oxo-3,4-dihydro-2H-pyrido[3,2-b][1,4]oxazin-6-yl)-oxazolidin-5-yl]-ethylamino}-methyl)-biphenyl-3-yloxy]-acetamide] | 0.031 (≈ 0.0583 µM) | 1 (≈ 1.88 µM) | 1 (≈ 1.88 µM) | 0.5 (≈ 0.941 µM) | 8 (≈ 15 µM)
COc1ccc(-c2cccc(CNCC[C@H]3CN(c4ccc5c(n4)NC(=O)CO5)C(=O)O3)c2)nn1 [Example 79, 6-((S)-5-{2-[3-(6-methoxy-pyridazin-3-yl)-benzylamino]-ethyl}-2-oxo-oxazolidin-3-yl)-4H-pyrido[3,2-b][1,4]oxazin-3-one] | 0.063 (≈ 0.132 µM) | 0.5 (≈ 1.05 µM) | 0.5 (≈ 1.05 µM) | 0.5 (≈ 1.05 µM) | 8 (≈ 16.8 µM)
N#Cc1cnnc(-c2cccc(CNCC[C@H]3CN(c4ccc5c(n4)NC(=O)CO5)C(=O)O3)c2)c1 [Example 80, 6-[3-({2-[(S)-2-oxo-3-(3-oxo-3,4-dihydro-2H-pyrido[3,2-b][1,4]oxazin-6-yl)-oxazolidin-5-yl]-ethylamino}-methyl)-phenyl]-pyridazine-4-carbonitrile] | 0.031 (≈ 0.0658 µM) | 0.25 (≈ 0.53 µM) | 0.5 (≈ 1.06 µM) | 0.5 (≈ 1.06 µM) | > 8
COc1cnnc(-c2cccc(CNCC[C@H]3CN(c4ccc5c(c4)NC(=O)CO5)C(=O)O3)c2)c1 [Example 81, 6-((S)-5-{2-[3-(5-methoxy-pyridazin-3-yl)-benzylamino]-ethyl}-2-oxo-oxazolidin-3-yl)-4H-benzo[1,4]oxazin-3-one] | 0.063 (≈ 0.132 µM) | 1 (≈ 2.1 µM) | 1 (≈ 2.1 µM) | 0.5 (≈ 1.05 µM) | > 8
N#Cc1cccc(-c2cccc(CNCC[C@H]3CN(c4ccc5c(c4)NC(=O)CO5)C(=O)O3)c2)c1 [Example 82, 3′-({2-[(S)-2-oxo-3-(3-oxo-3,4-dihydro-2H-benzo[1,4]oxazin-6-yl)-oxazolidin-5-yl]-ethylamino}-methyl)-biphenyl-3-carbonitrile] | ≤ 0.016 | 0.5 (≈ 1.07 µM) | 0.5 (≈ 1.07 µM) | 0.5 (≈ 1.07 µM) | 4 (≈ 8.54 µM)
COc1cnnc(-c2cccc(CNCCc3cn(-c4ccc5c(n4)NC(=O)CO5)c(=O)o3)c2)c1 [Example 83, 6-(5-{2-[3-(5-methoxy-pyridazin-3-yl)-benzylamino]-ethyl}-2-oxo-oxazol-3-yl)-4H-pyrido[3,2-b][1,4]oxazin-3-one] | ≤ 0.016 | 0.063 (≈ 0.133 µM) | 0.063 (≈ 0.133 µM) | 0.063 (≈ 0.133 µM) | 2 (≈ 4.22 µM)
CCOc1cncc(-c2cccc(CNCC[C@H]3CN(c4ccc5c(n4)NC(=O)CO5)C(=O)O3)c2)c1 [Example 84, 6-((S)-5-{2-[3-(5-ethoxy-pyridin-3-yl)-benzylamino]-ethyl}-2-oxo-oxazolidin-3-yl)-4H-pyrido[3,2-b][1,4]oxazin-3-one] | ≤ 0.063 | 0.5 (≈ 1.02 µM) | 0.125 (≈ 0.255 µM) | 0.25 (≈ 0.511 µM) | 8 (≈ 16.3 µM)
COc1cccc(-c2cccc(CNCCc3cn(-c4ccc5c(n4)NC(=O)CO5)c(=O)o3)c2O)n1 [Example 85, 6-(5-{2-[2-hydroxy-3-(6-methoxy-pyridin-2-yl)-benzylamino]-ethyl}-2-oxo-oxazol-3-yl)-4H-pyrido[3,2-b][1,4]oxazin-3-one] | ≤ 0.016 | 0.125 (≈ 0.255 µM) | ≤ 0.016 | ≤ 0.016 | 0.5 (≈ 1.02 µM)
COc1cccc(-c2cccc(CNCC[C@H]3CN(c4ccc5c(n4)NC(=O)CO5)C(=O)O3)c2)c1C#N [Example 86, 3-methoxy-3′-({2-[(S)-2-oxo-3-(3-oxo-3,4-dihydro-2H-pyrido[3,2-b][1,4]oxazin-6-yl)-oxazolidin-5-yl]-ethylamino}-methyl)-biphenyl-2-carbonitrile] | ≤ 0.016 | 8 (≈ 16 µM) | 0.5 (≈ 1 µM) | 0.125 (≈ 0.25 µM) | 4 (≈ 8.01 µM)
COc1cccc(-c2cc(CNCC[C@H]3CN(c4ccc5c(n4)NC(=O)CO5)C(=O)O3)ccn2)n1 [Example 87, 6-((S)-5-{2-[(6′-methoxy-[2,2]bipyridinyl-4-ylmethyl)-amino]-ethyl}-2-oxo-oxazolidin-3-yl)-4H-pyrido[3,2-b][1,4]oxazin-3-one] | ≤ 0.016 | 0.25 (≈ 0.525 µM) | 0.063 (≈ 0.132 µM) | 0.125 (≈ 0.262 µM) | 2 (≈ 4.2 µM)
N#Cc1cccc(-c2cccc(CNCC[C@H]3CN(c4ccc5c(c4)NC(=O)CO5)C(=O)O3)c2O)n1 [Example 88, 6-[2-hydroxy-3-({2-[(S)-2-oxo-3-(3-oxo-3,4-dihydro-2H-benzo[1,4]oxazin-6-yl)-oxazolidin-5-yl]-ethylamino}-methyl)-phenyl]-pyridine-2-carbonitrile] | ≤ 0.016 | 0.25 (≈ 0.515 µM) | 0.25 (≈ 0.515 µM) | 0.125 (≈ 0.257 µM) | 4 (≈ 8.24 µM)
COc1cnnc(-c2cc(CNCC[C@H]3CN(c4ccc5c(n4)NC(=O)CO5)C(=O)O3)ccc2O)c1 [Example 89, 6-((S)-5-{2-[4-hydroxy-3-(5-methoxy-pyridazin-3-yl)-benzylamino]-ethyl}-2-oxo-oxazolidin-3-yl)-4H-pyrido[3,2-b][1,4]oxazin-3-one] | ≤ 0.016 | 0.125 (≈ 0.254 µM) | 0.063 (≈ 0.128 µM) | 0.063 (≈ 0.128 µM) | 8 (≈ 16.2 µM)
COc1cccc(-c2cccc(CNCC[C@H]3CN(c4ccc5c(c4)NC(=O)CO5)C(=O)O3)c2O)n1 [Example 90, 6-((S)-5-{2-[2-hydroxy-3-(6-methoxy-pyridin-2-yl)-benzylamino]-ethyl}-2-oxo-oxazolidin-3-yl)-4H-benzo[1,4]oxazin-3-one] | ≤ 0.016 | 0.5 (≈ 1.02 µM) | 0.031 (≈ 0.0632 µM) | 0.063 (≈ 0.128 µM) | 2 (≈ 4.08 µM)
COc1cncc(-c2cccc(CNCC[C@H]3CN(c4ccc5c(n4)NC(=O)CO5)C(=O)O3)c2)n1 [Example 91, 6-((S)-5-{2-[3-(6-methoxy-pyrazin-2-yl)-benzylamino]-ethyl}-2-oxo-oxazolidin-3-yl)-4H-pyrido[3,2-b][1,4]oxazin-3-one] | ≤ 0.016 | 0.063 (≈ 0.132 µM) | 0.031 (≈ 0.0651 µM) | 0.031 (≈ 0.0651 µM) | 2 (≈ 4.2 µM)

Reference: patent US9527867B2, “Antibacterial biaromatic derivatives” (Actelion Pharmaceuticals Ltd., priority 2013, dated 2016)
